The values below are quoted from earlier work in patent US20260108637A1, “USES OF PSMA-TARGETING AND TSPO-TARGETING COMPOUNDS FOR EVALUATION OF INJURIES IN THE PERIPHERAL NERVOUS SYSTEM” (The Johns Hopkins University, priority 2023, published 2026).

Structures are written as SMILES.

The data set concerns the target GCPII (Homo sapiens, UniProt Q04609). To be noted: described previously, Chen et al., 2009.

Chain of GCPII (Q04609 whole entry, species assumed): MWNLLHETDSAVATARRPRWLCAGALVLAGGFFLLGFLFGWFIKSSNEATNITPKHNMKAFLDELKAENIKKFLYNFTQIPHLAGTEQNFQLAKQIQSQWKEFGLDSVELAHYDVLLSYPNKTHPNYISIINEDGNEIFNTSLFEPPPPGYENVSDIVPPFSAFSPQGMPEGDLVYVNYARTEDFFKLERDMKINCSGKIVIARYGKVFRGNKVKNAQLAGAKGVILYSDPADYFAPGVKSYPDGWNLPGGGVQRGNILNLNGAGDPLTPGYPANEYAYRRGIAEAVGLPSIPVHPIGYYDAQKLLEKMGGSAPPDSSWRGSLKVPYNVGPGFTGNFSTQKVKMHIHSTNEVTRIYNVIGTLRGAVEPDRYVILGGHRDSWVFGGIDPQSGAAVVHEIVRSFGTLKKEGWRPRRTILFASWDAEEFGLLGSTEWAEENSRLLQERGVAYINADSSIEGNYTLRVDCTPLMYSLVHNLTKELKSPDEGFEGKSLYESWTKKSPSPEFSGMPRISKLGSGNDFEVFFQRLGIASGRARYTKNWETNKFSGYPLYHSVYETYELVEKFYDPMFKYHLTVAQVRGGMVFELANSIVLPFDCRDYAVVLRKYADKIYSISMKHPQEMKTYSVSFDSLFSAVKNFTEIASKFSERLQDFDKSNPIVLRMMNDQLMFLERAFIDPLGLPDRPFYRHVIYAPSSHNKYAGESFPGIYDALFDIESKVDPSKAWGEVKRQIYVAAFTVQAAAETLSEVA

As a reminder, the Ki is a measure of affinity in units of concentration, obtained from inhibition or displacement. Consider `CC1(C)C(/C=C/C2=C(Oc3ccc(S(=O)(=O)O)cc3)C(=C/C=C3/N(CCCCS(=O)(=O)O)c4ccc(S(=O)(=O)O)cc4C3(C)C)/CCC2)=[N+](CCCCCC(=O)NCCCCC(NC(=O)CCCCCCC(=O)NCCCC[C@H](NC(=O)N[C@@H](CCC(=O)O)C(=O)O)C(=O)O)C(=O)O)c2ccc(S(=O)(=O)[O-])cc21` (stereo partly shown) [YC27], for which the Ki is 0.37 nM.
